{
  "source": "patent US20260364214A1",
  "about": "“MULTIVALENT FIBROBLAST ACTIVATION PROTEIN LIGANDS FOR TARGETED DELIVERY APPLICATIONS” (Philochem AG, priority 2022, published 2026)",
  "test_system": "SK-RC-52.hFAP tumors",
  "test": "Quantitative biodistribution in SK-RC-52.hFAP tumor bearing mice",
  "format": "in vivo, mouse (female athymic Balb/c AnNRj-Foxn1)",
  "conditions": "i.v. 250 nmol/kg, 50 MBq/kg",
  "method": "SK-RC-52.hFAP were grown to 80% confluence in RPMI-1640 with 10% fetal bovine serum (FBS) and 1% antibiotic-antimycotic and detached with Trypsin-EDTA (ethylenediaminetetraacetic acid) 0.05%. Tumor cells were resuspended in Hanks' Balanced Salt Solution medium. Aliquots of 5 million cells (100 μL of suspension) were injected subcutaneously in the right flank of female athymic Balb/c AnNRj-Foxn1 mice (6 to 8 wk of age).\nRadiolabeling of ESV6-DOTAGA, Bi-ESV6-DOTAGA, Tri-ESV6-DOTAGA, Tetra-ESV6-DOTAGA, Hexa-ESV6-DOTAGA, Octa-ESV6-DOTAGA and FAP-2286 with lutetium-177 (a therapeutic radionuclide) was performed with different specific activities for three different studies (biodistribution, therapy and dose optimization).\nPrior to the biodistribution study, precursors (100 nmol) were dissolved in 100 μL of milliQ water and diluted with 200 μL of sodium acetate (1 M in water, pH=4.5). 20 MBq of ^177Lu solution were added and the mixture was heated at 90 °C for 10 minutes, followed by dilution with […] of PBS to achieve final volume of 2 mL (20 doses of 100 μL each).\nESV6-DOTAGA, Bi-ESV6-DOTAGA, Tri-ESV6-DOTAGA, Tetra-ESV6-DOTAGA, Hexa-ESV6-DOTAGA, Octa-ESV6-DOTAGA and FAP-2286 were radiolabeled with ^177Lu as described above. Tumors were allowed to grow to an average volume of 300 mm^3. Mice were randomized and injected intravenously with radiolabeled preparations of ^177Lu-ESV6, ^177Lu-Bi-ESV6, ^177Lu-Tri-ESV6, Tetra-ESV6-DOTAGA, Hexa-ESV6-DOTAGA, Octa-ESV6-DOTAGA or ^177Lu-FAP-2286 (250 nmol/kg; 50 MBq/kg). Mice were euthanized at different time-points after the intravenous injection by CO2 asphyxiation. Tumors, organs, and blood were collected, weighted, and radioactivity was measured with a Packard Cobra Gamma Counter. Values are expressed as percent ID/g±SD [FIG. 4]. The % ID/g in the tumors was corrected considering the SK-RC-52.hFAP tumor growth rate.\nQuantitative in vivo biodistribution of ^177Lu-ESV6-DOTAGA, ^177Lu-Bi-ESV6-DOTAGA, ^177Lu-Tri-ESV6-DOTAGA, ^177Lu-FAP-2286, Tetra-ESV6-DOTAGA, Hexa-ESV6-DOTAGA and Octa-ESV6-DOTAGA at different time points after intravenous administration (250 nmol/kg, 50 MBq/kg) in mice bearing SK-RC-52.hFAP tumors, are shown in Tables 1 to 4 and 10 to 12. Data are reported as % ID/g±standard deviation.\nTumor-to-organ ratios of ^177Lu-ESV6-DOTAGA, ^177Lu-Bi-ESV6-DOTAGA, ^177Lu-Tri-ESV6-DOTAGA, ^177Lu-FAP-2286, Tetra-ESV6-DOTAGA, Hexa-ESV6-DOTAGA and Octa-ESV6-DOTAGA, at different time points after intravenous administration (250 nmol/kg, 50 MBq/kg) in mice bearing SK-RC-52.hFAP tumors, are shown in Tables 5 to 8 and 13 to 15. Avg.=average; Std.d=standard deviation.",
  "data": [
    {"smiles": "N#C[C@@H]1CC(F)(F)CN1C(=O)CNC(=O)c1ccnc2c(NC(=O)CCC(=O)NCCNC(=O)CCOCC(COCCC(=O)NCCNC(=O)CCC(=O)Nc3cccc4c(C(=O)NCC(=O)N5CC(F)(F)C[C@H]5C#N)ccnc34)(COCCC(=O)NCCNC(=O)CCC(=O)Nc3cccc4c(C(=O)NCC(=O)N5CC(F)(F)C[C@H]5C#N)ccnc34)NC(=O)CCOCC(COCCC(=O)NC(COCCC(=O)NCCNC(=O)CCC(=O)Nc3cccc4c(C(=O)NCC(=O)N5CC(F)(F)C[C@H]5C#N)ccnc34)(COCCC(=O)NCCNC(=O)CCC(=O)Nc3cccc4c(C(=O)NCC(=O)N5CC(F)(F)C[C@H]5C#N)ccnc34)COCCC(=O)NCCNC(=O)CCC(=O)Nc3cccc4c(C(=O)NCC(=O)N5CC(F)(F)C[C@H]5C#N)ccnc34)NC(=O)CCC(C(=O)O)N3CCN(CC(=O)[O-])CCN(CC(=O)[O-])CCN(CC(=O)[O-])CC3)cccc12.[177Lu+3]", "note": "(stereo partly drawn) [^177Lu-Hexa-ESV6-DOTAGA]", "values": [
      {"measurement": "Tumor to organs ratio, Blood", "setting": "6 h", "result": 7.84},
      {"measurement": "Injected dose per gram, Blood", "setting": "6 h post injection", "result": 0.36, "unit": "% ID/g"},
      {"measurement": "Tumor to organs ratio, Blood", "setting": "24 h", "result": 17.77},
      {"measurement": "Injected dose per gram, Blood", "setting": "24 h post injection", "result": 0.10, "unit": "% ID/g"},
      {"measurement": "Tumor to organs ratio, Blood", "setting": "96 h", "result": 85.06},
      {"measurement": "Injected dose per gram, Blood", "setting": "96 h post injection", "result": 0.02, "unit": "% ID/g"},
      {"measurement": "Tumor to organs ratio, Heart", "setting": "6 h", "result": 8.50},
      {"measurement": "Injected dose per gram, Heart", "setting": "6 h post injection", "result": 0.33, "unit": "% ID/g"},
      {"measurement": "Tumor to organs ratio, Heart", "setting": "24 h", "result": 7.90},
      {"measurement": "Injected dose per gram, Heart", "setting": "24 h post injection", "result": 0.23, "unit": "% ID/g"},
      {"measurement": "Tumor to organs ratio, Heart", "setting": "96 h", "result": 8.99},
      {"measurement": "Injected dose per gram, Heart", "setting": "96 h post injection", "result": 0.16, "unit": "% ID/g"},
      {"measurement": "Tumor to organs ratio, Intestine", "setting": "6 h", "result": 13.86},
      {"measurement": "Injected dose per gram, Intestine", "setting": "6 h post injection", "result": 0.24, "unit": "% ID/g"},
      {"measurement": "Tumor to organs ratio, Intestine", "setting": "24 h", "result": 20.76},
      {"measurement": "Injected dose per gram, Intestine", "setting": "24 h post injection", "result": 0.10, "unit": "% ID/g"},
      {"measurement": "Tumor to organs ratio, Intestine", "setting": "96 h", "result": 20.47},
      {"measurement": "Injected dose per gram, Intestine", "setting": "96 h post injection", "result": 0.07, "unit": "% ID/g"},
      {"measurement": "Tumor to organs ratio, Kidney", "setting": "6 h", "result": 5.24},
      {"measurement": "Injected dose per gram, Kidney", "setting": "6 h post injection", "result": 0.53, "unit": "% ID/g"},
      {"measurement": "Tumor to organs ratio, Kidney", "setting": "24 h", "result": 3.37},
      {"measurement": "Injected dose per gram, Kidney", "setting": "24 h post injection", "result": 0.57, "unit": "% ID/g"},
      {"measurement": "Tumor to organs ratio, Kidney", "setting": "96 h", "result": 0.99},
      {"measurement": "Injected dose per gram, Kidney", "setting": "96 h post injection", "result": 1.37, "unit": "% ID/g"},
      {"measurement": "Tumor to organs ratio, Liver", "setting": "6 h", "result": 0.04},
      {"measurement": "Injected dose per gram, Liver", "setting": "6 h post injection", "result": 62.54, "unit": "% ID/g"},
      {"measurement": "Tumor to organs ratio, Liver", "setting": "24 h", "result": 0.03},
      {"measurement": "Injected dose per gram, Liver", "setting": "24 h post injection", "result": 53.45, "unit": "% ID/g"},
      {"measurement": "Tumor to organs ratio, Liver", "setting": "96 h", "result": 0.03},
      {"measurement": "Injected dose per gram, Liver", "setting": "96 h post injection", "result": 49.80, "unit": "% ID/g"},
      {"measurement": "Tumor to organs ratio, Lung", "setting": "6 h", "result": 0.43},
      {"measurement": "Injected dose per gram, Lung", "setting": "6 h post injection", "result": 6.91, "unit": "% ID/g"},
      {"measurement": "Tumor to organs ratio, Lung", "setting": "24 h", "result": 0.34},
      {"measurement": "Injected dose per gram, Lung", "setting": "24 h post injection", "result": 5.33, "unit": "% ID/g"},
      {"measurement": "Tumor to organs ratio, Lung", "setting": "96 h", "result": 1.10},
      {"measurement": "Injected dose per gram, Lung", "setting": "96 h post injection", "result": 1.38, "unit": "% ID/g"},
      {"measurement": "Tumor to organs ratio, Muscle", "setting": "6 h", "result": 9.52},
      {"measurement": "Injected dose per gram, Muscle", "setting": "6 h post injection", "result": 0.66, "unit": "% ID/g"},
      {"measurement": "Tumor to organs ratio, Muscle", "setting": "24 h", "result": 13.70},
      {"measurement": "Injected dose per gram, Muscle", "setting": "24 h post injection", "result": 0.14, "unit": "% ID/g"},
      {"measurement": "Tumor to organs ratio, Muscle", "setting": "96 h", "result": 35.84},
      {"measurement": "Injected dose per gram, Muscle", "setting": "96 h post injection", "result": 0.05, "unit": "% ID/g"},
      {"measurement": "Tumor to organs ratio, Spleen", "setting": "6 h", "result": 0.07},
      {"measurement": "Injected dose per gram, Spleen", "setting": "6 h post injection", "result": 41.26, "unit": "% ID/g"},
      {"measurement": "Tumor to organs ratio, Spleen", "setting": "24 h", "result": 0.04},
      {"measurement": "Injected dose per gram, Spleen", "setting": "24 h post injection", "result": 47.44, "unit": "% ID/g"},
      {"measurement": "Tumor to organs ratio, Spleen", "setting": "96 h", "result": 0.04},
      {"measurement": "Injected dose per gram, Spleen", "setting": "96 h post injection", "result": 38.61, "unit": "% ID/g"},
      {"measurement": "Tumor to organs ratio, Tail", "setting": "6 h", "result": 4.76},
      {"measurement": "Injected dose per gram, Tail", "setting": "6 h post injection", "result": 0.70, "unit": "% ID/g"},
      {"measurement": "Tumor to organs ratio, Tail", "setting": "24 h", "result": 1.39},
      {"measurement": "Injected dose per gram, Tail", "setting": "24 h post injection", "result": 1.65, "unit": "% ID/g"},
      {"measurement": "Tumor to organs ratio, Tail", "setting": "96 h", "result": 2.03},
      {"measurement": "Injected dose per gram, Tail", "setting": "96 h post injection", "result": 1.02, "unit": "% ID/g"},
      {"measurement": "Injected dose per gram, Tumor", "setting": "6 h post injection", "result": 2.77, "unit": "% ID/g"},
      {"measurement": "Injected dose per gram, Tumor", "setting": "24 h post injection", "result": 1.80, "unit": "% ID/g"},
      {"measurement": "Injected dose per gram, Tumor", "setting": "96 h post injection", "result": 1.36, "unit": "% ID/g"}
    ]}
  ]
}
